Measured values as given in patent US4362725A, “Cephalosporins” (Dr. Karl Thomae Gesellschaft mit beschrankter Haftung, priority 1980, dated 1982).
Values after ≈ are worked out from the molar mass of the structure shown.

Experiments:
Proteus mirabilis BC 17 = experiment: In vitro serial dilution test in the microtiter system (MIC), Proteus mirabilis; format: cell-based; details: BC17, 18 to 20 h at 37° C., read-out: MIC Prot. mir. BC 17
Procedure: (§1) The tests were performed using the serial dilution test in the microtiter system. The effect of the test compound on bacteristasis was examined in a liquid medium at the following concentrations: >64, 64 32, 16, 8, 4, 2, 1, 0.5, 0.25, 0.125, 0.06, 0.03 and 0.015 μgm/ml. The nutrient medium consisted of 10 gm of peptone, 8 gm of meat extract oxoid, 3 gm of sodium chloride, and 2 gm of sec. sodium phosphate diluted with distilled water to […] (pH 7.2-7.4). Only in the test against streptococci 1% of glucose was added. The age of the primary cultures was approximately 20 hours. The standardization of the bacteria suspension was effected using a photometer according to the method of Eppendorf (test tube .phi.-mm, filter 546 nm), using for comparison a barium sulfate suspension formed by the addition of 3.0 ml of 1% barium chloride solution to 97 ml of 1% sulfuric acid. After standardization, the test microorganisms were further diluted to a concentration of 1:1500, using a sodium chloride solution.
(§2) 16 mgm of the particular test compound were put into a 10 ml measuring flask, and the flask was subsequently filled to the mark with solvent. The further dilution series was standardized with distilled water or the appropriate solvent.
(§3) The cavities of the microtiter plates were filled with 0.2 ml of nutrient medium. 0.01 ml of the appropriate test compound solution was then added, followed by inoculation with 0.01 ml (1 drop) of the standardized bacteria suspension. The bacteria were incubated at 37° C. for 18 to 20 hours. Control tests using only the solvent were carried out simultaneously.
(§4) The readings were made macroscopically to determine the minimum inhibitory concentration (the lowest still bacteriostatically effective concentration).
(§5) The following test organisms were used:
(§6) Staphylococcus aureus SG 511, Escherichia coli ATCC11 775, Pseudomonas aeruginosa hamburgensis and Pseudomonas aeruginosa BC 19, Serratia marcescens ATCC 13 880, Klebsiella pneumoniae ATCC 10 031 and BC 6, Proteus mirabilis BC 17, Proteus rettgeri BC 7, Enterobacter Cloaceae ATCC 13047 and E. coli R+TEM (β-lactamase carrier).

[1] = test system: Staphylococcus aureus SG 511; experiment: In vitro serial dilution test in the microtiter system (MIC), S. aureus; format: cell-based; details: SG511, 18 to 20 h at 37° C.
Procedure: as §1, §2, §3, §4, §5, §6

[2] = test system: Enterobacter Cloaceae ATCC 13047; experiment: In vitro serial dilution test in the microtiter system (MIC), Enterobacter; format: cell-based; details: ATCC13047, 18 to 20 h at 37° C., read-out: MIC Eb. cloaceae
Procedure: as §1, §2, §3, §4, §5, §6

[3] = test system: Klebsiella pneumoniae BC 6; experiment: In vitro serial dilution test in the microtiter system (MIC), Klebsiella BC 6; format: cell-based; details: BC6, 18 to 20 h at 37° C., read-out: MIC Klebs. pneum. BC 6
Procedure: as §1, §2, §3, §4, §5, §6

[4] = test system: Klebsiella pneumoniae ATCC 10 031; experiment: In vitro serial dilution test in the microtiter system (MIC), Klebsiella ATCC 10031; format: cell-based; details: 18 to 20 h at 37° C., read-out: MIC Klebs. pneum. ATCC 10031
Procedure: as §1, §2, §3, §4, §5, §6

[5] = test system: Pseudomonas aeruginosa BC 19; experiment: In vitro serial dilution test in the microtiter system (MIC), Pseudomonas BC 19; format: cell-based; details: BC19, 18 to 20 h at 37° C., read-out: MIC Pseud. aerug. BC 19
Procedure: as §1, §2, §3, §4, §5, §6

[6] = test system: E. coli R+TEM (β-lactamase carrier); experiment: In vitro serial dilution test in the microtiter system (MIC), E. coli R+TEM; format: cell-based; details: Escherichia coli, read-out: MIC E. coli R + TEM
Procedure: as §1, §2, §3, §4, §5, §6

Proteus rettgeri BC 7 = experiment: In vitro serial dilution test in the microtiter system (MIC), Proteus rettgeri; format: cell-based; details: Providencia rettgeri, BC7; 18 to 20 h at 37° C.; read-out: MIC Prot. rettg. BC 7
Procedure: as §1, §2, §3, §4, §5, §6

[7] = test system: Serratia marcescens ATCC 13 880; experiment: In vitro serial dilution test in the microtiter system (MIC), Serratia; format: cell-based; details: 18 to 20 h at 37° C., read-out: MIC Ser. marcesc. ATCC 13880
Procedure: as §1, §2, §3, §4, §5, §6

[8] = test system: Escherichia coli ATCC11 775; experiment: In vitro serial dilution test in the microtiter system (MIC), E. coli; format: cell-based; details: 18 to 20 h at 37° C., read-out: MIC E. coli ATCC 11775
Procedure: as §1, §2, §3, §4, §5, §6

[9] = test system: Pseudomonas aeruginosa hamburgensis; experiment: In vitro serial dilution test in the microtiter system (MIC), Pseudomonas Hbg.; format: cell-based; details: 18 to 20 h at 37° C., read-out: MIC Pseud. aerug. Hbg.
Procedure: as §1, §2, §3, §4, §5, §6

E. coli ATCC 11 775 = experiment: In vivo activity in mice, experimental E. coli infection; set-up: species or system mice (female, NMRI strain); details: Escherichia coli, ATCC11, sc, 168 h; s.c., once 1 hour after i.p. E. coli infection; 7 days observation; read-out: ED50 (dose at which 50% of the animals survive)
Procedure: (§7) Several of the compounds of this invention were tested in vivo against experimental infections in mice. E. coli ATCC 11 775 and Pseudomonas aeruginosa BC 19 were used as the pathogenic bacteria. An interaperitoneal infection was induced with 0.2 ml of a bacterial suspension (containing 5% of mucin). This corresponds to approximately 1.4×10^6 E. coli germs or to 1.3×10^6 pseudomonas germs per mouse. Female mice of the NMRI strain were divided up into groups of 10 animals of which 2 groups remained untreated while the remaining groups were subcutaneously administered various doses of the particular cephalosporins according to the invention for the purpose of determining the ED50 (dose at which 50% of the animals survive). In the case of the E. coli infection, the treatment was applied once (1 hour after infection) while the pseudomonas infection was treated 3 times (1, 3 and 5 hours after infection).
(§8) In both cases, the observation period was 7 days. The results of these tests, carried out with typical representatives of the cephalosporins according to the invention, are shown in Table 3 below.

[10] = test system: Pseudomonas aeruginosa BC 19; experiment: In vivo activity in mice, experimental Pseudomonas infection; set-up: species or system mice (female, NMRI strain); details: BC19, sc, 168 h, per dose, s.c., 3 times (1, 3 and 5 hours after i.p. Pseudomonas infection), 7 days observation, read-out: ED50 (dose at which 50% of the animals survive)
Procedure: as §7, §8

| SMILES | MIC (Proteus mirabilis BC 17) [µg/mL] | MIC [1] [µg/mL] | MIC [2] [µg/mL] | MIC [3] [µg/mL] | MIC [4] [µg/mL] | MIC [5] [µg/mL] | MIC [6] [µg/mL] | MIC (Proteus rettgeri BC 7) [µg/mL] | MIC [7] [µg/mL] | MIC [8] [µg/mL] | MIC [9] [µg/mL] | ED50 (E. coli ATCC 11 775) [mg/kg] | ED50 [10] [mg/kg] |
| --- | --- | --- | --- | --- | --- | --- | --- | --- | --- | --- | --- | --- | --- |
| CO/N=C(\C(=O)N[C@@H]1C(=O)N2C(C(=O)O)=C(COC(N)=O)CS[C@H]12)c1ccco1 [Cefuroxim, reference compound] | 0.5 (≈ 1.18 µM) | 1 (≈ 2.36 µM) | 32 (≈ 75.4 µM) | 4 (≈ 9.43 µM) | 2 (≈ 4.71 µM) | > 100 | 4 | 2 (≈ 4.71 µM) | 8 (≈ 18.9 µM) | 8 (≈ 18.9 µM) | > 100 | > 100 |  |
| NS(=O)(=O)c1ccc(Nc2ncc(NC(=O)NC(C(=O)N[C@@H]3C(=O)N4C(C(=O)O)=C(CSc5nnnn5CCO)CS[C@H]34)c3ccc(O)cc3)c(O)n2)cc1 (stereo partly drawn) [Compound 7] | 0.06 (≈ 0.0736 µM) | 1 (≈ 1.23 µM) | 0.25 (≈ 0.307 µM) | 0.12 (≈ 0.147 µM) | 0.12 (≈ 0.147 µM) | 4 (≈ 4.91 µM) | 4 | 0.25 (≈ 0.307 µM) | 0.12 (≈ 0.147 µM) | 0.03 (≈ 0.0368 µM) | 4 (≈ 4.91 µM) | ~0.3 | 6.3 |
| CS(=O)(=O)CCn1nnnc1SCC1=C(C(=O)O)N2C(=O)[C@@H](NC(=O)C(NC(=O)Nc3cnc(Nc4ccc(S(N)(=O)=O)cc4)nc3O)c3ccc(O)cc3)[C@H]2SC1 (stereo partly drawn) [Compound 30] | 0.06 (≈ 0.0684 µM) | 2 (≈ 2.28 µM) | 0.5 (≈ 0.57 µM) | 0.5 (≈ 0.57 µM) | 0.5 (≈ 0.57 µM) | 4 (≈ 4.56 µM) | 8 | 1 (≈ 1.14 µM) | 0.5 (≈ 0.57 µM) | 0.12 (≈ 0.137 µM) | 8 (≈ 9.12 µM) | ~0.6 | 10 to 20 |
| C[S+]([O-])CCn1nnnc1SCC1=C(C(=O)O)N2C(=O)[C@@H](NC(=O)C(NC(=O)Nc3cnc(Nc4ccc(S(N)(=O)=O)cc4)nc3O)c3ccc(O)cc3)[C@H]2SC1 (stereo partly drawn) [Compound 21] | 0.12 (≈ 0.139 µM) | 1 (≈ 1.16 µM) |  | 0.25 (≈ 0.29 µM) | 0.25 (≈ 0.29 µM) | 8 (≈ 9.29 µM) | 8 | 0.5 (≈ 0.581 µM) | 0.25 (≈ 0.29 µM) | 0.12 (≈ 0.139 µM) | 8 (≈ 9.29 µM) |  |  |
